Assay results from US12371454B2, “Cyclic peptide compound having Kras inhibitory action” (priority 2019, dated 2025).
pIC50: −log10 of the molar value. Positions of bridges follow the written chain, without caps; N, C: chain ends. Non-standard residues stand in square brackets, D forms with d. Residues, ends and D or L forms follow the SMILES beside them. *: point of attachment. hPhe(3,5-F2-4-CF3) = N[C@@H](CCc1cc(F)c(C(F)(F)F)c(F)c1)C(=O)O; hPhe(3-Cl-4-CF3) = N[C@@H](CCc1ccc(C(F)(F)F)c(Cl)c1)C(=O)O; Thiomorpholino(1,1-dioxo) = O=S1(=O)CCN(*)CC1; NMePhe(4-Me) = CN[C@@H](Cc1ccc(C)cc1)C(=O)O; NMeNva(5,5-F2) = CN[C@@H](CCC(F)F)C(=O)O; NMeGly(cPent) = CN[C@H](C(=O)O)C1CCCC1; Pro(4,4-F2) = O=C(O)[C@@H]1CC(F)(F)CN1; NMeCha = CN[C@@H](CC1CCCCC1)C(=O)O; NMeChg = CN[C@H](C(=O)O)C1CCCCC1; NMeI = CC[C@H](C)[C@H](NC)C(=O)O; Gly(cPr) = N[C@H](C(=O)O)C1CC1; NMeD = CN[C@@H](CC(=O)O)C(=O)O; NMeL = CN[C@@H](CC(C)C)C(=O)O; NMeV = CN[C@H](C(=O)O)C(C)C; d(β3hA) = C[C@@H](N)CC(=O)O; NMeA = CN[C@@H](C)C(=O)O; Piperidide = C1CCN(*)CC1; Pyrrolidide = C1CCN(*)C1; dNMeA = CN[C@H](C)C(=O)O; Ac5c = NC1(C(=O)O)CCCC1; Aze = O=C(O)[C@@H]1CCN1; Ac4c = NC1(C(=O)O)CCC1; Sar = CNCC(=O)O

Target: T1, Kras and SOS1 (biotin-tagged human Kras loaded with GDP, His-tagged human SOS1) (Homo sapiens, UniProt P01116, G12D)
T1 construct: made in house; host or cells: E. coli (stated for Kras only)
T1 sequence (P01116 1-188 isoform P01116-2 G12D): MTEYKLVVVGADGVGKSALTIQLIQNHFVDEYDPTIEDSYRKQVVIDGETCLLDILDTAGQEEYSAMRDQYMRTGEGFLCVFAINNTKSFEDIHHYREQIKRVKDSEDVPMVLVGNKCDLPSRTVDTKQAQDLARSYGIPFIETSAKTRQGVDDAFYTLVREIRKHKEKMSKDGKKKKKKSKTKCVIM
Test: Protein-protein interaction inhibition between Kras and SOS1 (KrasGl2D-SOS PPI) using AlphaScreen
Format: binding
Settings: AlphaScreen; biotin-tagged human Kras loaded with GDP, His-tagged human SOS1; read-out: KRAS G12D-SOS PPI IC50
Summary of the method: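 Read-out is acceptor-bead light at 520-620 nm, arising when 680 nm-irradiated nickel donor beads pass singlet oxygen to streptavidin acceptors. The bead pair links His-tagged SOS1 with biotin-tagged, GDP-bound Kras from E. coli.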

SMILES	pIC50
CC[C@H](C)[C@@H]1NC(=O)[C@H](CC(C)C)N(C)C(=O)C[C@@H](C(=O)N2CCCC2)N(C)C(=O)[C@H](C2CCCCC2)N(C)C(=O)C2(CCC2)NC(=O)[C@@H]2CC(F)(F)CN2C(=O)[C@H](CCc2cc(F)c(C(F)(F)F)c(F)c2)NC(=O)CN(C)C(=O)[C@H](CC2CCCCC2)N(C)C(=O)CN(C)C(=O)CN(C)C1=O [Compound 1192] ([NMeL]I[Sar][Sar][NMeCha][Sar][hPhe(3,5-F2-4-CF3)][Pro(4,4-F2)][Ac4c][NMeChg][NMeD]-Pyrrolidide; lactam N-11)	9.41
CC[C@H](C)[C@@H]1NC(=O)[C@H](C)N(C)C(=O)C[C@@H](C)NC(=O)[C@H](C(C)C)N(C)C(=O)C2(CCCC2)NC(=O)[C@@H]2CCCN2C(=O)[C@H](CCc2ccc(C(F)(F)F)c(Cl)c2)NC(=O)[C@@H](C)N(C)C(=O)[C@H](CC2CCCCC2)N(C)C(=O)[C@@H]2CCN2C(=O)[C@H](CC2CCCCC2)N(C)C1=O [Compound 2015] (cyclo([Ac5c][NMeV][d(β3hA)][NMeA]I[NMeCha][Aze][NMeCha][dNMeA][hPhe(3-Cl-4-CF3)]P))	6.59
CC(C)C[C@H]1C(=O)N[C@@H](C2CC2)C(=O)N(C)CC(=O)N(C)CC(=O)N(C)[C@@H](CC2CCCCC2)C(=O)N(C)CC(=O)N[C@@H](CCc2ccc(C(F)(F)F)c(Cl)c2)C(=O)N2CCC[C@H]2C(=O)NC2(CCCC2)C(=O)N(C)[C@@H](C(C)C)C(=O)N[C@H](C)CC(=O)N1C [Compound 101] (cyclo([Ac5c][NMeV][d(β3hA)][NMeL][Gly(cPr)][Sar][Sar][NMeCha][Sar][hPhe(3-Cl-4-CF3)]P))	6.80
CC[C@H](C)[C@@H]1NC(=O)[C@H](C)N(C)C(=O)C[C@@H](C)NC(=O)[C@H](C2CCCC2)N(C)C(=O)C2(CCCC2)NC(=O)[C@@H]2CCCN2C(=O)[C@H](CCc2ccc(C(F)(F)F)c(Cl)c2)NC(=O)CN(C)C(=O)[C@H](CC(C)C)N(C)C(=O)[C@@H]2CCCN2C(=O)CN(C)C1=O [Compound 429] (cyclo([Ac5c][NMeGly(cPent)][d(β3hA)][NMeA]I[Sar]P[NMeL][Sar][hPhe(3-Cl-4-CF3)]P))	7.00
CC[C@H](C)[C@@H]1NC(=O)[C@H](CC(C)C)N(C)C(=O)C[C@@H](C(=O)N2CCCCC2)N(C)C(=O)[C@H](CCC(F)F)N(C)C(=O)C2(CCCC2)NC(=O)[C@@H]2CCCN2C(=O)[C@H](CCc2ccc(C(F)(F)F)c(Cl)c2)NC(=O)CN(C)C(=O)[C@H](CC2CCCCC2)N(C)C(=O)CN(C)C(=O)CN(C)C1=O [Compound 1782] ([NMeL]I[Sar][Sar][NMeCha][Sar][hPhe(3-Cl-4-CF3)]P[Ac5c][NMeNva(5,5-F2)][NMeD]-Piperidide; lactam N-11)	8.66
CC[C@H](C)[C@@H]1NC(=O)[C@H](CC(C)C)N(C)C(=O)C[C@@H](C(=O)N2CCS(=O)(=O)CC2)N(C)C(=O)[C@H](C2CCCCC2)N(C)C(=O)C2(CCCC2)NC(=O)[C@@H]2CCCN2C(=O)[C@H](CCc2ccc(C(F)(F)F)c(Cl)c2)NC(=O)CN(C)C(=O)[C@H](CC2CCCCC2)N(C)C(=O)CN(C)C(=O)CN(C)C1=O [Compound 1263] ([NMeL]I[Sar][Sar][NMeCha][Sar][hPhe(3-Cl-4-CF3)]P[Ac5c][NMeChg][NMeD]-{Thiomorpholino(1,1-dioxo)}; lactam N-11)	8.57
CC[C@H](C)[C@@H]1NC(=O)[C@H](CC(C)C)N(C)C(=O)C[C@@H](C(=O)N(C)C)N(C)C(=O)[C@H](C2CCCC2)N(C)C(=O)C2(CCCC2)NC(=O)[C@@H]2CCCN2C(=O)[C@H](CCc2ccc(C(F)(F)F)c(Cl)c2)NC(=O)CN(C)C(=O)[C@H](CC2CCCCC2)N(C)C(=O)CN(C)C(=O)CN(C)C1=O [Compound 1659] ([NMeL]I[Sar][Sar][NMeCha][Sar][hPhe(3-Cl-4-CF3)]P[Ac5c][NMeGly(cPent)][NMeD]-NMe2; lactam N-11)	9.42
CC[C@H](C)[C@@H]1NC(=O)[C@H](C)N(C)C(=O)C[C@@H](C(=O)N2CCCCC2)N(C)C(=O)[C@H](C(C)C)N(C)C(=O)C2(CCCC2)NC(=O)[C@@H]2CCCN2C(=O)[C@H](CCc2ccc(C(F)(F)F)c(Cl)c2)NC(=O)[C@H]2CCCN2C(=O)[C@H](CC2CCCCC2)N(C)C(=O)[C@@H]2CCN2C(=O)CN(C)C1=O [Compound 447] ([NMeA]I[Sar][Aze][NMeCha][dP][hPhe(3-Cl-4-CF3)]P[Ac5c][NMeV][NMeD]-Piperidide; lactam N-11)	7.85
CC[C@H](C)[C@@H]1NC(=O)[C@H](CC(C)C)N(C)C(=O)C[C@@H](C(=O)N(C)C)N(C)C(=O)[C@H]([C@@H](C)CC)N(C)C(=O)C2(CCCC2)NC(=O)[C@H](CCC(F)F)N(C)C(=O)[C@H](CCc2ccc(C(F)(F)F)c(Cl)c2)NC(=O)CN(C)C(=O)[C@H](Cc2ccc(C)cc2)N(C)C(=O)[C@@H]2CCN2C(=O)[C@H](C)N(C)C1=O [Compound 1898] ([NMeL]I[NMeA][Aze][NMePhe(4-Me)][Sar][hPhe(3-Cl-4-CF3)][NMeNva(5,5-F2)][Ac5c][NMeI][NMeD]-NMe2; lactam N-11)	9.03
